Data published in patent publication US10683278B2 (JINAN UNIVERSITY, priority 2015, dated 2020).

Key:
Assay type in all cases: cell-based
[1] = tested on: AXL phosphorylation in MDA-MB-231 cells; experiment: Western Blot, AXL kinase phosphorylation of MDA-MB-231 cells; conditions: FIG. 1
Procedure: Effect of quinolone derivatives on AXL kinase phosphorylation of MDA-MB-231 and 4T1 cells A conventional Western Blot was used, which includes four steps: sample preparation; electrophoretic separation; membrane transfer of proteins; and immunological hybridization and developing (protein detection).
1. MDA-MB-231 cells were seeded into a 6-well plate at an appropriate density, cultured for 24 hours until the cell confluency reached about 80%, drug-containing medium at corresponding concentration was added respectively, and co-cultured for 2-24 hours.
2. The medium was discarded at a predetermined time point, the well plate was washed twice with precooled PBS at 4° C. and the residual liquid was washed away.
3. 1×SDS sample buffer (CST recommended, 6-well plate, 300 μL) was added, scraping all the cells in the dish with a cell scraper, and transferring same to a 1.5 mL of EP tube (operated on ice).
4. The cell lysate was sonicated for 10-15 seconds to cut off DNA, so as to reduce sample viscosity.
5. Boil the sample for 5 min.
6. 12000 g of samples were centrifuged at 4° C. for 5 min, and the supernatant was taken and stored at −20° C. or −80° C. for western blot analysis.
1. Electrophoretic separation: 15-20 μL of 8%-12% SDS-PAGE polyacrylamide gel was loaded, with 90 v electrophoresis for the upper gel, and 120 v electrophoresis for the lower gel.
2. Assembly and transferring of the sandwich: submerging the polyacrylamide gel in transfer buffer and equilibrated for 10 min. According to the size of polyacrylamide gel, PVDF membrane (Mili pore) and 6 pieces of filter paper were cut out and placed in transfer buffer and equilibrated for 10 min. The PVDF membrane needs to be immersed in methanol for 3-5 seconds. Placed in such sequence as sponge→3 layers of filter paper→gel→membrane→3 layers of filter paper→sponge. Ensure there are no bubbles.
3. Membrane transferring: the transfer tank was placed in an ice bath, and the sandwich was added. Ensure the gel facing the negative electrode, and the PVDF facing the positive electrode. 1× membrane transferring buffer was added and placed under the constant pressure, subjecting same to membrane transferring at 110 V for 0.5 to 2 h depending on the molecular weight of the protein to be tested.
4. Blocking: the PVDF membrane was removed after the membrane transferring, blocked with blocking solution (1×TBS, containing 0.5% Tween-20 and 5% skim milk powder), and shaked slowly for 2 h on a horizontal shaker.
5. Incubation of the primary antibody: after blocking, diluting the primary antibody (antibody AXL, phosphor-AXL, AKT, phosphor-AKT, GAPDH, etc.) at 1: 200-1:1000. The PVDF membrane and the antibody were incubated overnight in a wet box at 4° C. to allow sufficient binding of the antibody to the protein of interest.
6. […]

MDA-MB-231 cells [2] = experiment: Immunofluorescence, EMT marker proteins in TGF-β1-induced MDA-MB-231 cells; conditions: TGF-β1 (10 ng/ml); for expression of E-cadherin / expression of N-cadherin: 96 hours; for phosphorylation level of AXL: FIGS. 3 and 4
Procedure: Immunofluorescence experiments were used to determine the effect of the compounds on EMT marker proteins.
MDA-MB-231 cells were seeded onto a glass slide pre-placed in a 6-well plate, and then treated with compounds to be tested at different concentrations (0.04, 0.2, 1.5 μM) with or without TGF-β1 (10 ng/ml) for 96 hours. At room temperature, the cells were fixed with a 4% formaldehyde solution for 15 minutes, treated with 0.5% Triton X-100 for 10 minutes, and blocked with PBS solution containing 3% goat serum albumin for one hour, and then incubated with antibodies against E-cadherin and N-cadherin (1:1000; Abeam, ab10983) for 1.5 hours at room temperature. The cells were then washed with PBST and co-incubated with Alexa Fluor 555 labeled rabbit secondary antibody (4413; CST, USA) or Alexa Fluor 488 labeled murine secondary antibody (4408; CST, USA) for one hour at room temperature in the dark. Cell nuclei were stained with ProLong Gold antifade reagent (P36931; Invitrogen, USA) for 5 minutes, glass slides were covered with pieces of glass, and samples were observed using a laser scanning confocal microscope (Zeiss 710; Germany).

MDA-MB-231 cells [3] = experiment: Wound-healing and transwell invasion and migration of MDA-MB-231 cells; conditions: FIGS. 5 and 6
Procedure: Compounds were tested for their effects on EMT using routine transwell and wound-healing experiments.
MDA-MB-231 breast cancer cells were inoculated into a 6-well plate in 5×10^5 cells/well, and when the cells occupied 100% of the medium, the medium was removed, and a scratch of a constant width was drawn in the middle of the monolayer cell with a 200-μL pipette tip. The cells were washed three times with phosphate buffered saline (PBS) to remove cell debris, followed by addition of 2% FBS with or without TGF-β1 (10 ng/mL) and substances to be tested at different concentrations, and cultured in RPMI-1640 for 24 hours. At the time points of 0 and 24 hour, three scratch areas were selected, and examined and photographed using a phase contrast inverted fluorescence microscopy (CKX41; Olympus) and Image-ProPlus image capture software. The degree of scratch closure was calculated using Adobe Photoshop 7.0.1 software (Adobe Systems Inc., San Jose, Calif.). The final result is determined by averaging three results. […]
1. Cells were trypsinized and centrifuged, then resuspended and counted, and resuspended with serum-free medium, diluted to 5×10^4 to 5×10^5 cells/mL; AXL inhibitor solution at different concentrations were prepared with the cell suspension, and added into the upper chamber, and 800 μL of a medium containing 10% FBS was added into the lower chamber. […]

Compound | phosphorylation of AXL [1] | phosphorylation of downstream signaling protein AKT [1] | expression of E-cadherin (MDA-MB-231 cells [2]) | expression of N-cadherin (MDA-MB-231 cells [2]) | phosphorylation level of AXL (MDA-MB-231 cells [2]) | invasion and migration of MDA-MB-231 cells induced by TGF-β1 (MDA-MB-231 cells [3])
CCc1ccc2c(c1)c(=O)c(C(=O)Nc1ccc(Oc3ncnc4[nH]cc(-c5ccccc5)c34)c(F)c1)c(C)n2C [TL4800075, 6-ethyl-N-(3-fluoro-4-((5-phenyl-7H-pyrrolo[2,3-d]pyrimidin-4-yl)oxy)phenyl)-1,2-dimethyl-4-oxo-1,4-dihydroquinoline-3-carboxamide] | significantly inhibit | significantly inhibit | significantly upregulate | down-regulate | inhibit the phosphorylation level of AXL in a dose-dependent manner | inhibit the invasion and migration of breast cancer MDA-MB-231 cells induced by TGF-β1 in a dose-dependent manner
CCc1ccc2c(c1)c(=O)c(C(=O)Nc1ccc(Oc3ncnc4cc(OC)c(OC)cc34)c(F)c1)c(C)n2C [TL4800191, N-(4-(6,7-dimethoxyquinazolin-4-yloxy)-3-fluorophenyl)-6-ethyl-1,2-dimethyl-4-oxo-1,4-dihydroquinoline-3-carboxamide] | significantly inhibit | significantly inhibit | significantly upregulate | down-regulate | inhibit the phosphorylation level of AXL in a dose-dependent manner | inhibit the invasion and migration of breast cancer MDA-MB-231 cells induced by TGF-β1 in a dose-dependent manner
